Reference: the NIST ThermoML archive (doi:10.1007/s10765-010-0862-1)

What was measured:
[1] = mn = molality of the nth substance listed, in mol/kg; conditions: 101.3 kPa, Liquid
[2] = 101.3 kPa, Liquid

NCCCC(=O)O [4-aminobutanoic acid] + O
[1]
Conditions | mass density, m1 = 0.02 [kg/m3] | mass density, m1 = 0.04 [kg/m3] | mass density, m1 = 0.06 [kg/m3] | mass density, m1 = 0.08 [kg/m3] | mass density, m1 = 0.1 [kg/m3] | speed of sound, m1 = 0.02 [m/s] | speed of sound, m1 = 0.04 [m/s] | speed of sound, m1 = 0.06 [m/s] | speed of sound, m1 = 0.08 [m/s] | speed of sound, m1 = 0.1 [m/s]
308.15 K | 994.6 | 995.2 | 995.8 | 996.4 | 997 | 1521.8 | 1523 | 1524.3 | 1525.6 | 1527
313.15 K | 992.8 | 993.4 | 994 | 994.6 | 995.2 | 1529.4 | 1530.7 | 1532 | 1533.3 | 1534.6
318.15 K | 990.8 | 991.4 | 992 | 992.6 | 993.2 | 1536.5 | 1537.7 | 1538.9 | 1540.1 | 1541.3

CN(C)C(=N)NC(=N)N.Cl [N,N-dimethylimidodicarbonimidic diamide hydrochloride] + O
[1]
Conditions | mass density, 308.15 K [kg/m3] | mass density, 313.15 K [kg/m3] | mass density, 318.15 K [kg/m3] | speed of sound, 308.15 K [m/s] | speed of sound, 313.15 K [m/s] | speed of sound, 318.15 K [m/s]
m1 = 0.05 | 997.5 | 996 | 994.3 | 1527.4 | 1534.4 | 1539.2
m1 = 0.1 | 999.1 | 997.2 | 995.5 | 1529 | 1537.8 | 1541
m1 = 0.15 | 1000.2 | 998.8 | 997.2 | 1530 | 1541.2 | 1543.8

O [water]
[2]
Conditions | speed of sound [m/s]
313.15 K | 1528
318.15 K | 1535.2
